Source: patent US20240002436A1, “RESPIRATORY TREATMENTS” (Hofseth Biocare ASA, priority 2020, published 2024)
Where a SMILES comes first, the peptide text is derived from it. [ ]: non-standard residue; d: D form. The star is where a group is joined. cisHyp = O=C(O)[C@@H]1C[C@H](O)CN1; NMeL = CN[C@@H](CC(C)C)C(=O)O; NMeV = CN[C@H](C(=O)O)C(C)C; Octanoyl = CCCCCCCC(=O)*

B1: ApoA-IV: positive control in the eosinophil apoptosis and CD11b assays, used at 3 μg/mL (protein, UniProt P06727 21-396, looked up)
Apolipoprotein A-IV: EVSADQVATVMWDYFSQLSNNAKEAVEHLQKSELTQQLNALFQDKLGEVNTYAGDLQKKLVPFATELHERLAKDSEKLKEEIGKELEELRARLLPHANEVSQKIGDNLRELQQRLEPYADQLRTQVSTQAEQLRRQLTPYAQRMERVLRENADSLQASLRPHADELKAKIDQNVEELKGRLTPYADEFKVKIDQTVEELRRSLAPYAQDTQEKLNHQLEGLTFQMKKNAEELKARISASAEELRQRLAPLAEDVRGNLRGNTEGLQKSLAELGGHLDQQVEEFRRRVEPYGENFNKALVQQMEQLRQKLGPHAGDVEGHLSFLEKDLRDKVNSFFSTFKEKESQDKTLSLPELEQQQEQQQEQQQEQVQMLAPLES

Columns and labels:
[1] = test system: Allergic Human Purified Peripheral Blood Eosinophils; test: Percent eosinophil apoptosis (Annexin V-FITC, flow cytometry) in allergic human purified peripheral blood eosinophils; assay type: cell-based; conditions: IL-5 (50 pM), 18 hr incubation; for viability at 10 µg/mL / Percent apoptotic eosinophils (annexin V-positive) at 10 µg/mL: Homo sapiens, Eosinophil, 10 μg/mL test compound, assay SD +/-2.3%; for viability at 10 µg/mL: read-out: Percent live EO cells; for Percent apoptotic eosinophils (annexin V-positive) at 10 µg/mL: read-out: Percent of apoptotic EO cells
Description: Percent Eosinophil Apoptosis in Allergic Human Purified Peripheral Blood Eosinophils
Aliquots were removed after 18 hr incubation, washed twice in PBS, and resuspended in binding buffer. The eosinophil cells were stained using the Annexin V-FITC Apoptosis Detection Kit I, (Sigma Aldrich) and immediately analyzed by flow cytometry. Each sample was acquired for 1 min, and the total number of eosinophils gated on a forward scatter/side scatter plot and the percentage of live cells (annexin Vneg) and apoptotic cells (annexin Vpos) was recorded.

[2] = test system: CD11b on PMNL surface; test: CD11b change on PMNL surface stimulated by CCL11 (flow cytometry); assay type: cell-based; conditions: 30 min pretreatment, 2.5 nm CCL11 30 min at 37° C., CD16 negative cells; for activity at 1 µg/mL: Homo sapiens, PMNL, 0.5 h, 1 μg/mL test compound, assay SD +/-2%, read-out: CD11b change (100% as baseline)
Description: CD11b Change (100% as Baseline) on PMNL Surface Stimulated by 2.5 nm CCL11
(PMNL) cells were pretreated with 3 μg/mL ApoA-IV (positive control), 1 μg/mL test compounds, and formulation vehicle (negative control) for 30 minutes and incubated with serial dilutions of CCL 11 for 30 minutes at 37° C. Samples were stained with anti-CD16-PE-Cy5 and anti-CD11b-PE (ICRF44) antibodies. Eosinophils were identified as CD16 negative cells. CD11b upregulation was analyzed by flow cytometry and reported above. (Standard deviation in the assay is +/−2%). See results in Table 2 below.

[3] = 3 μg/mL ApoA-IV (positive control)

| Molecule | viability at 10 µg/mL ([1]; annexin Vneg) [%] | Percent apoptotic eosinophils (annexin V-positive) at 10 µg/mL ([1]; annexin Vpos) [%] | activity at 1 µg/mL [2] [%] | Total percent live and apoptotic EO cells [1, 3] [%] | Percent live EO cells ([1]; 3 μg/mL ApoA-IV (positive control), annexin Vneg) [%] | Percent of apoptotic EO cells ([1]; 3 μg/mL ApoA-IV (positive control), annexin Vpos) [%] | CD11b change (100% as baseline) [2, 3] [%] |
| --- | --- | --- | --- | --- | --- | --- | --- |
| CCCC[C@@H](C)C[C@@H](C)C(=O)N(C)[C@@H](CC(C)C)C(=O)N[C@H](C(=O)N(C)[C@H](C(=O)N1C[C@@H](O)C[C@H]1C(=O)N1C(=O)C=C[C@@H]1C)C(C)C)C(C)OC(C)=O (stereo partly drawn) [Compound 1a] | 42.5 | 53.2 | 129 | – | – | – | – |
| CCCCC(C)CC(C)C(=O)N(C)[C@@H](CC(C)C)C(=O)N[C@H](C(=O)N(C)[C@H](C(=O)N1C[C@@H](O)C[C@H]1C(=O)N1C(=O)C=C[C@@H]1C)C(C)C)C(C)OC(C)=O (stereo partly drawn) [Compound 1b] | 41.8 | 55 | 128 | – | – | – | – |
| CCCC[C@@H](C)C[C@@H](C)C(=O)N(C)[C@@H](CC(C)C)C(=O)N[C@H](C(=O)N(C)[C@H](C(=O)N1CCC[C@H]1C(=O)N1C(=O)C=C[C@@H]1C)C(C)C)C(C)OC(C)=O (stereo partly drawn) [Compound 3a] | 51.6 | 43.7 | 139 | – | – | – | – |
| CCCCCCCC(=O)N(C)[C@@H](CC(C)C)C(=O)N[C@H](C(=O)N(C)[C@H](C(=O)N1C[C@@H](O)C[C@H]1C(=O)N1C(=O)C=C[C@@H]1C)C(C)C)C(C)OC(C)=O (stereo partly drawn) [Compound 5a] | 42.9 | 53.1 | 129 | – | – | – | – |
| CCCCC(C)CC(C)C(=O)N[C@@H](CC(C)C)C(=O)N[C@H](C(=O)N[C@H](C(=O)N1C[C@@H](O)C[C@H]1C(=O)N1C(=O)C=C[C@@H]1C)C(C)C)C(C)OC(C)=O (stereo partly drawn) [Compound 6a] | 54.5 | 42.8 | 141 | – | – | – | – |
| CCCCC(C)CC(C)C(=O)N(C)CC(=O)N[C@H](C(=O)N(C)CC(=O)N1C[C@@H](O)C[C@H]1C(=O)N1C(=O)C=C[C@@H]1C)C(C)OC(C)=O (stereo partly drawn) [Compound 7a] | 59.4 | 39.9 | 149 | – | – | – | – |
| CCCCC(C)CC(C)C(=O)N(C)[C@@H](CC(C)C)C(=O)N[C@H](C(=O)N(C)[C@H](C(=O)N1C[C@@H](O)C[C@H]1C(=O)N1C(=O)C=C[C@@H]1C)C(C)C)C(C)O (stereo partly drawn) [Compound 8a] | 31.2 | 60.1 | 122 | – | – | – | – |
| CCCCC(C)CC(C)C(=O)N(C)[C@@H](CC(C)C)C(=O)N[C@@H](COC(C)=O)C(=O)N(C)[C@H](C(=O)N1C[C@@H](O)C[C@H]1C(=O)N1C(=O)C=C[C@@H]1C)C(C)C (stereo partly drawn) [Compound 9a] | 39.6 | 56.4 | 127 | – | – | – | – |
| CCCCC(C)CC(C)C(=O)N(C)[C@@H](CC(C)C)C(=O)N[C@@H](CS)C(=O)N(C)[C@H](C(=O)N1CCC[C@H]1C(=O)N1C(=O)C=C[C@@H]1C)C(C)C (stereo partly drawn) [Compound 11a] | 49.7 | 44.4 | 135 | – | – | – | – |
| CCCCC(C)CC(C)C(=O)N(C)[C@@H](CC(C)C)C(=O)N[C@H](C(=O)N(C)[C@H](C(=O)N1CCC[C@H]1C(=O)N1C(=O)C=CC1=O)C(C)C)C(C)OC(C)=O (stereo partly drawn) [Compound 12a] | 52 | 42.1 | 141 | – | – | – | – |
| CC(C)C[C@@H](C(=O)N[C@H](C(=O)N(C)[C@H](C(=O)N1C[C@@H](O)C[C@H]1C(=O)N1C(=O)C=C[C@@H]1C)C(C)C)C(C)O)N(C)C(=O)C1CCCCC1 (stereo partly drawn) [Compound 13a] | 51.3 | 44 | – | – | – | – | – |
| CC/C=C\C/C=C\C/C=C\C/C=C\C/C=C\CCCC(=O)N(C)[C@@H](CC(C)C)C(=O)N[C@H](C(=O)N(C)[C@H](C(=O)N1C[C@@H](O)C[C@H]1C(=O)N1C(=O)C=C[C@@H]1C)C(C)C)C(C)O (stereo partly drawn) [Compound 14a] | 26.6 | 67.1 | – | – | – | – | – |
| CCCCCCCC(=O)N(C)[C@@H](CC(C)C)C(=O)N[C@@H](COC(C)=O)C(=O)N(C)[C@H](C(=O)N1C[C@@H](O)C[C@H]1C(=O)OC)C(C)C [Compound 17a] (Octanoyl-[NMeL]S(Ac)[NMeV][cisHyp]-OMe) | 53.5 | 48.2 | – | – | – | – | – |
| CCCCCCCC(=O)N(C)[C@@H](Cc1ccccc1)C(=O)N[C@H](C(=O)N(C)[C@H](C(=O)N1C[C@@H](O)C[C@H]1C(=O)N1C(=O)C=CC1=O)C(C)C)C(C)OC(C)=O (stereo partly drawn) [Compound 18a] | 41 | 55.5 | – | – | – | – | – |
| CCCCCCCC(=O)N(C)[C@@H](CC(C)C)C(=O)N[C@H](C(=O)N(C)[C@@H](CCSC)C(=O)N1C[C@@H](O)C[C@H]1C(=O)N1C(=O)C=CC1=O)C(C)OC(C)=O (stereo partly drawn) [Compound 19a] | 52.7 | 41.8 | – | – | – | – | – |
| CCCCCCCC(=O)N(C)[C@H](C(=O)N[C@H](C(=O)N(C)[C@@H](Cc1c[nH]c2ccccc12)C(=O)N1C[C@@H](O)C[C@H]1C(=O)N1C(=O)C=CC1=O)C(C)OC(C)=O)C(C)CC (stereo partly drawn) [Compound 20a] | 59.3 | 39.4 | – | – | – | – | – |
| CC/C=C\C/C=C\C/C=C\C/C=C\C/C=C\CCCC(=O)N(C)[C@@H](CC(C)C)C(=O)N[C@H](C(=O)N(C)[C@H](C(=O)N1C[C@@H](O)C[C@H]1C(=O)N1C(=O)C=CC1=O)C(C)C)C(C)OC(C)=O (stereo partly drawn) [Compound 21a] | 38.2 | 58 | – | – | – | – | – |
| CC/C=C\C/C=C\C/C=C\C/C=C\C/C=C\CCCC(=O)N(C)[C@@H](CC(C)C)C(=O)N[C@H](C(=O)N(C)[C@H](C(=O)N1C[C@@H](O)C[C@H]1C(=O)N1C(=O)C=CC1=O)C(C)C)C(C)O (stereo partly drawn) [Compound 22a] | 28.1 | 68.7 | – | – | – | – | – |
| CC/C=C\C/C=C\C/C=C\C/C=C\C/C=C\CCCC(=O)N(C)[C@@H](Cc1ccccc1)C(=O)N[C@H](C(=O)N(C)[C@H](C(=O)N1C[C@@H](O)C[C@H]1C(=O)N1C(=O)C=CC1=O)C(C)C)C(C)OC(C)=O (stereo partly drawn) [Compound 23a] | 31.4 | 65.6 | – | – | – | – | – |
| CC/C=C\C/C=C\C/C=C\C/C=C\C/C=C\CCCC(=O)N(C)[C@@H](Cc1ccccc1)C(=O)N[C@H](C(=O)N(C)[C@H](C(=O)N1CCC[C@H]1C(=O)N1C(=O)C=CC1=O)C(C)C)C(C)OC(C)=O (stereo partly drawn) [Compound 24a] | 33.8 | 64.9 | – | – | – | – | – |
| CC/C=C\C/C=C\C/C=C\C/C=C\C/C=C\CCCC(=O)N(C)[C@@H](Cc1ccccc1)C(=O)N[C@H](C(=O)N(C)[C@H](C(=O)N1CCC[C@H]1C(=O)N1C(=O)C=CC1=O)C(C)C)C(C)O (stereo partly drawn) [Compound 25a] | 22.3 | 73.1 | – | – | – | – | – |
| CC/C=C\C/C=C\C/C=C\C/C=C\C/C=C\CCCCCC(=O)N(C)[C@@H](Cc1ccccc1)C(=O)N[C@H](C(=O)N(C)[C@H](C(=O)N1CCC[C@H]1C(=O)N1C(=O)C=CC1=O)C(C)C)C(C)O (stereo partly drawn) [Compound 26a] | 30 | 67.3 | – | – | – | – | – |
| CC/C=C\C/C=C\C/C=C\C/C=C\C/C=C\CCCC(=O)N(C)[C@@H](CC(C)C)C(=O)N[C@H](C(=O)N(C)[C@H](C(=O)N1C[C@@H](O)C[C@H]1C(=O)N1C(=O)C=C[C@@H]1C)C(C)C)C(C)OC(C)=O (stereo partly drawn) [Compound 27a] | 39.1 | 56.5 | – | – | – | – | – |
| B1 | – | – | – | 92.4 | 29.3 | 63.1 | 121 |
